US7258862B2, “Mushroom extracts having anticancer activity” (Gavish-Galilee Bio Aplications Ltd., priority 2004, dated 2007)
“Also recorded” adds a separate entry of the source.

Experiments:
Format in all cases: cell-based, human
K562 cells [1] = experiment: Apostain ELISA assay (DNA condensation, apoptosis) in K562 cells; details: 48 h; for Relative Apostain Value: K562, solvent-treated sample = 1
PARP = PARP cleavage Western blot in K562 cells; details: 500 μg/ml and 250 μg/ml, 48 hours, Western blot (FIGS. 2A-2B)
p210^Bcr-Abl = experiment: Western blot of p210 Bcr-Abl expression in K562 cells; details: extracts 500 μg/ml and 250 μg/ml, AG957 10 μM and 20 μM, 48 hours, Western blot (FIGS. 3A-3B)
K562 cells [2] = experiment: Erythroid differentiation: hemoglobin production in K562 cells

SMILES | Relative Apostain Value (K562 cells [1]; 10 μM) | Relative Apostain Value (K562 cells [1]; 20 μM) | Induction of apoptosis / increase in DNA condensation in K562 cells (in words) (K562 cells [1]; extracts 250 and 500 μg/ml, AG957 10 μM) | Cleavage of PARP in K562 cells (in words) (PARP) | Effect on p210^Bcr-Abl expression levels in K562 cells (in words) (p210^Bcr-Abl) | Relative Hemoglobin (K562 cells [2]; 1 mM, day 5, K562, solvent-treated sample = 1.0) | Induction of hemoglobin production / erythroid differentiation in K562 cells (in words) (K562 cells [2]; day 5 post-treatment, versus DMSO-treated cells)
COC(=O)c1ccc(NCc2cc(O)ccc2O)cc1 [AG957] | 6.2 | 3.9 | significantly induced an increase in DNA condensation | significantly activates PARP cleavage; also recorded: significant cleavage of PARP | reduction in Bcr-Abl protein levels | – | –
CCCC(=O)O [Butyric Acid, butyric acid] | – | – | – | – | – | 9.4 | active in inducing hemoglobin expression
